Source: patent US6521814B1, “Use of ligands for treatment of diseases responsive to retinoids” (Institut National de la Santa et de la Recherche Medicale, priority 1997, dated 2003)

Assays:
Type in all cases: cell-based, murine
[1] = test system: RXRα−/− F9 cells; assay: Apoptosis of F9 cells (Hoechst 33258 staining, FACS); details: 1 μM
[2] = test system: RXRα−/−/RARγ−/− F9 cells; assay: Differentiation of F9 cells into primitive and parietal endoderm-like cells in monolayer (morphology, RT-PCR of collagen type IVα1 and laminin B1)
Excerpt: (§1) The differentiation patterns of RXRα^−/−/RARα^−/−and RXRα^−/−/RARγ^−/− cells were compared with those of WT and single knockout cell lines.
(§2) Transcript levels were quantified using a BAS 2000 bioimaging analyzer (Fuji Ltd., Tokyo, Japan), and were normalized to the corresponding 36B4 signals.

[3] = test system: RXRα−/− F9 cells; assay: as above; details: 1 μM, 48 h
Excerpt: as §1, §2

[4] = test system: RXRα−/−/RARα−/− F9 cells; assay: as above
Excerpt: as §1, §2

[5] = test system: RARγ−/− F9 cells; assay: Morphological differentiation of F9 cell aggregates into visceral endoderm (VE)-like cells (morphology, RT-PCR of markers)
Description: (§3) F9 cells were cultured and induced to differentiate into primitive, parietal and visceral endoderm-like cells as previously described (Boylan, J., et al., Proc. Natl. Acad. Sci. USA 90:9601-9605 (1993); Clifford, J., et al., EMBO J. 15:4142-4155 (1996)).
(§4) RNA preparation, RT-PCR, and Southern blotting were performed as previously described (Bouillet, P., et al., Dev. Biol. 170:420-433 (1995); Roy, B., et al., Mol. Cell. Biol. 15:6481-6487 (1995)). The PCR primers and end-labeled oligonucleotide probes for collagen IVα1, laminin B1, α-fetoprotein (AFP), and 36B4, were described previously (Clifford, J., et al ., EMBO J. 15:4142-4155 (1996)). Transcript levels were quantified using a BAS 2000 bioimaging analyzer (Fuji Ltd., Tokyo, Japan), and were normalized to the corresponding 36B4 signals.

[6] = test system: RARγ−/− F9 cells; assay: Differentiation of F9 cells into primitive and parietal endoderm-like cells in monolayer (morphology, RT-PCR of collagen type IVα1 and laminin B1); details: 1 μM, 48 h
Description: as §1, §3, §4

[7] = test system: RARα−/− F9 cells; assay: as above; details: 1 μM, 48 h
Description: as §1, §3, §4

[8] = test system: RXRα−/−/RARα−/− F9 cells; assay: Apoptosis of F9 cells (Hoechst 33258 staining, FACS); details: 1 μM
[9] = test system: WT F9 cells; assay: Morphological differentiation of F9 cell aggregates into visceral endoderm (VE)-like cells (morphology, RT-PCR of markers); details: 50 nM, 10 d
Excerpt: (§5) Similarly, after 10 d of treatment, >80% of the outer layer of RARα^−/− and RXRα^−/−/RARα^−/− cell aggregates differentiated into VE-like cells, which were indistinguishable from those of WT and RXRα^−/− cells (FIG. 23A, compare f with panels b and d; and Table 9). […] To exclude the possibility that this very poor differentiation of the RXRα^−/−/RARγ^−/− cells could be due to some clonal variation, rather than the presence of the RXRα-null mutation in the RARγ-null background, we expressed the RXRα cDNA in RXRα^−/−/RARγ^−/− cells.
as §3, §4

[10] = test system: RARα−/− F9 cells; assay: as above; details: 50 nM
Excerpt: as §5, §3, §4

[11] = 1 μM tRA alone or with 250 μM bt2cAMP, after 4 d

CC1=C(/C=C/C(C)=C/C=C/C(C)=C/C(=O)O)C(C)(C)CCC1 [tRA, all-trans retinoic acid]
proportion of apoptotic nuclei and subcellular fragments (Hoechst 33258) ([1]; 6 d): ± (<1%) | sub-2N size DNA-containing particles ('apoptotic bodies'), FACS ([1]; after 5 d): not detected | morphological differentiation [2, 11]: No morphological differentiation at all | induction of collagen type IVα1 and laminin B1 mRNA ([2]; 1 μM, 48 h): fully abrogated | cells exhibiting a differentiated morphology ([2]; after 6 days of treatment): < 0.1% | morphological differentiation ([2]; after 10 d of treatment): undifferentiated phenotype persisted | induction of collagen type IVα1 mRNA, lower level compared to WT cells [3]: 3 fold | induction of laminin B1 mRNA, lower level compared to WT cells [3]: 6 fold | cells with morphological characteristics of primitive or parietal endodermal differentiation [4, 11]: < 10% | induction of collagen type IVα1 mRNA, lower level compared to WT cells ([4]; 1 μM, 48 h): five | induction of AFP mRNA ([5]; RARγ−/− aggregates, 50 nM, 10 d): hardly detectable | proportion of outer layer of cells displaying VE morphology ([5]; RARγ−/−, 50 nM, 10 d): ± (not more than 10%) | outer layer of cells exhibiting VE conversion ([5]; RARγ−/−, 50 nM, after 10 d): < 10% | proportion of outer layer of cells displaying VE morphology ([5]; RARγ−/−, 50 nM, after 14 d of treatment): +++ (more than 80%) | VE differentiation ([5]; RARγ−/−, after 14 d of treatment): full VE differentiation was eventually achieved | induction of collagen type IVα1 mRNA, lower level compared to WT cells [6]: 10 fold | induction of laminin B1 mRNA, lower level compared to WT cells [6]: 6 fold | induction of collagen type IVα1 and laminin B1 mRNA compared to WT cells [7]: not altered | proportion of apoptotic nuclei and subcellular fragments (Hoechst 33258) ([8]; 6 d): ± (<1%) | sub-2N size DNA-containing particles ('apoptotic bodies'), FACS ([8]; after 5 d): not detected | induction of collagen type IVα1, laminin B1 and AFP mRNA ([9]; WT aggregates): similarly induced | proportion of outer layer of cells displaying VE morphology ([9]; WT): +++ (more than 80%) | proportion of outer layer of cells displaying VE morphology ([10]; 10 d): +++ (more than 80%) | outer layer of cell aggregates differentiated into VE-like cells ([10]; after 10 d): > 80%
